What was measured:
[1] = biological target: T1, human recombinant bradykinin B1 receptor (Homo sapiens, UniProt P46663); assay: Human recombinant bradykinin B1 receptor competitive radioligand binding; conditions: hB1 expressed in CHO cells, [3H]-[Des-Arg10] Kallidin radioligand; read-out: B1 binding
T1 construct: host or cells: CHO cells, clone hB1-A5
T1 sequence (P46663 1-353): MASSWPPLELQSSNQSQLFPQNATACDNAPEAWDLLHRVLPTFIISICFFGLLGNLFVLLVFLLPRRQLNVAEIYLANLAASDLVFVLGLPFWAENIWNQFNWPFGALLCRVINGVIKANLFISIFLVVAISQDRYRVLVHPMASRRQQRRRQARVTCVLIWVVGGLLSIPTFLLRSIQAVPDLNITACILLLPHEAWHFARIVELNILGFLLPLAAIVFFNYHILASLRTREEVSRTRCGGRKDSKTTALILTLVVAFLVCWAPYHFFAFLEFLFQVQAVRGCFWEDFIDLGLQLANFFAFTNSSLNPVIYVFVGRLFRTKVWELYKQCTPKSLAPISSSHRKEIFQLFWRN
Method in brief: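 Competition radioligand binding on CHO-expressed hB1 membranes, using [3,4-prolyl-3,4-^3H(N)]-[Des-Arg^10] Kallidin as tracer, 15 min at 25° C. Excess Lys-des-Arg^9-Bradykinin (10 μM) set nonspecific binding. Sigmoidal fits of at least seven concentrations gave IC50, converted to Ki via Cheng-Prusoff; KD from Scatchard.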

[2] = biological target: T2, recombinant human B1 receptors (Homo sapiens, UniProt P46663); assay: Functional assay: antagonist potency by cytosolic calcium measurement (plate reader fluorimeter) in CHO-B1 cells, agonist LysDABK; type: cell-based; conditions: CHO-B1 cells, inhibition of LysDABK (EC80)-evoked [Ca2+]i elevation; read-out: B1 func.
T2 construct: host or cells: CHO (CHO-B1)
T2 sequence (P46663 1-353): T1 sequence (P46663 1-353)
Method in brief: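 IC50 is the concentration giving half-maximal inhibition of the LysDABK (EC80) calcium response, fitted from at least three experiments. CHO cells stably expressing human B1 were dye-loaded, exposed to compound for 20-25 min, then read by fluo-4 fluorescence (ΔF/F) at 37 °C.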

Compound	Ki [1] [nM]	IC50 [2] [nM]
Cn1nnc(-c2c(Cl)c3ccccc3n2-c2ccc(CNC(=O)C3(NC(=O)c4ccnc(F)c4)CC3)cc2)n1 [Example 28, N-(1-{4-[3-chloro-2-(2-methyl-2H-tetrazol-5-yl)-indol-1-yl]-benzylcarbamoyl}-cyclopropyl)-2-fluoro-isonicotinamide]	< 20	< 20
COc1cc(C(=O)NC2(C(=O)NCc3ccc(-n4c(-c5ncc(C)o5)c(Cl)c5ccccc54)cc3)CC2)on1 [Example 38, 3-Methoxy-isoxazole-5-carboxylic acid (1-{4-[3-chloro-2-(5-methyl-oxazol-2-yl)-indol-1-yl]-benzylcarbamoyl}-cyclopropyl)-amide]	< 20	20 to 100
COC(=O)c1c(Cl)c2ccccc2n1-c1ccc(CNC(=O)C2(NC(=O)C(F)(F)F)CC2)c(F)c1 [Example 54, 3-Chloro-1-[3-fluoro-4-({[1-(2,2,2-trifluoro-acetylamino)-cyclopropanecarbonyl]-amino}-methyl)-phenyl]-1H-indole-2-carboxylic acid methyl ester]	< 20	< 20
Cc1nc(-c2c(Cl)c3ccccc3n2-c2ccc(CNC(=O)C3(NC(=O)c4ccoc4)CC3)cc2)no1 [Example 137, Furan-3-carboxylic acid (1-{4-[3-chloro-2-(5-methyl-[1,2,4]oxadiazol-3-yl)-indol-1-yl]-benzylcarbamoyl}-cyclopropyl)-amide]	< 20	< 20
Cc1nc(-c2c(Cl)c3ccccc3n2-c2ccc(CNC(=O)C3(NC(=O)c4cc(C)n(C)n4)CC3)cc2)no1 [Example 148, 1,5-Dimethyl-1H-pyrazole-3-carboxylic acid (1-{4-[3-chloro-2-(5-methyl-[1,2,4]oxadiazol-3-yl)-indol-1-yl]-benzylcarbamoyl}-cyclopropyl)-amide]	< 20	20 to 100
COc1cc(C(=O)NC2(C(=O)NCc3ccc(-n4c(-c5nc(C)no5)c(Cl)c5ccccc54)cn3)CC2)on1 [Example 58, 3-Methoxy-isoxazole-5-carboxylic acid [1-({5-[3-chloro-2-(3-methyl-[1,2,4]oxadiazol-5-yl)-indol-1-yl]-pyridin-2-ylmethyl}-carbamoyl)-cyclopropyl]-amide]	< 20	< 20
Cc1nc(-c2c(Cl)c3ccccc3n2-c2ccc(CNC(=O)C3(NC(=O)c4cccc(I)c4)CC3)cc2)no1 [Example 176, N-(1-{4-[3-Chloro-2-(5-methyl-[1,2,4]oxadiazol-3-yl)-indol-1-yl]-benzylcarbamoyl}-cyclopropyl)-3-iodo-benzamide]	20 to 100	20 to 100
Cc1nnc(-c2c(Cl)c3ccccc3n2-c2ccc(CNC(=O)C3(NC(=O)CC(F)(F)F)CC3)cc2)o1 [Example 183, 1-(3,3,3-Trifluoro-propionylamino)-cyclopropanecarboxylic acid 4-[3-chloro-2-(5-methyl-[1,3,4]oxadiazol-2-yl)-indol-1-yl]-benzylamide]	20 to 100	20 to 100
COc1cc(C(=O)NC2(C(=O)NCc3ccc(-n4c(-c5noc(C)n5)cc5cc(F)ccc54)cn3)CC2)on1 [Example 61, 3-Methoxy-isoxazole-5-carboxylic acid [1-({5-[5-fluoro-2-(5-methyl-[1,2,4]oxadiazol-3-yl)-indol-1-yl]-pyridin-2-ylmethyl}-carbamoyl)-cyclopropyl]-amide]	< 20	< 20
COc1cc(C(=O)NC2(C(=O)NCc3ccc(-n4c(-c5noc(C)n5)cc5ccccc54)cc3)CC2)on1 [Example 195, 3-Methoxy-isoxazole-5-carboxylic acid (1-{4-[2-(5-methyl-[1,2,4]oxadiazol-3-yl)-indol-1-yl]-benzylcarbamoyl}-cyclopropyl)-amide]	< 20	< 20
CC(NC(=O)C1(NC(=O)C(F)(F)F)CC1)c1ccc(-n2c(C(=O)N3CCCC3)c(Cl)c3ccccc32)cc1 (centres unmarked) [Example 33, 1-(2,2,2-Trifluoro-acetylamino)-cyclopropanecarboxylic acid (1-{4-[3-chloro-2-(pyrrolidine-1-carbonyl)-indol-1-yl]-phenyl}-ethyl)-amide]	20 to 100	100 to 500
Cc1nc(-c2c(F)c3cc(F)ccc3n2-c2ccc(CNC(=O)C3(NC(=O)C(F)(F)F)CC3)cc2)no1 [Example 199, 1-(2,2,2-Trifluoro-acetylamino)-cyclopropanecarboxylic acid 4-[3,5-difluoro-2-(5-methyl-[1,2,4]oxadiazol-3-yl)-indol-1-yl]-benzylamide]	< 20	< 20
COc1ccc2c(c1)c(Cl)c(C#N)n2-c1ccc(CNC(=O)C2(NC(=O)c3cc(OC)no3)CC2)cc1 [Example 52, 3-Methoxy-isoxazole-5-carboxylic acid {1-[4-(3-chloro-2-cyano-5-methoxy-indol-1-yl)-benzylcarbamoyl]-cyclopropyl}-amide]	< 20	< 20
Cn1nnc(-c2cc3ccccc3n2-c2ccc(CNC(=O)C3(NC(=O)C(F)(F)F)CC3)cc2)n1 [Example 36, 1-(2,2,2-Trifluoro-acetylamino)-cyclopropanecarboxylic acid 4-[2-(2-methyl-2H-tetrazol-5-yl)-indol-1-yl]-benzylamide]	< 20	< 20
Cc1nc(-c2c(Cl)c3ccccc3n2-c2ccc(CNC(=O)C3(NC(=O)c4ccc(F)c(C(F)(F)F)c4)CC3)cc2)no1 [Example 98, N-(1-{4-[3-Chloro-2-(5-methyl-[1,2,4]oxadiazol-3-yl)-indol-1-yl]-benzylcarbamoyl}-cyclopropyl)-4-fluoro-3-trifluoromethyl-benzamide]	< 20	20 to 100
Cc1nc(-c2c(Cl)c3cc(F)ccc3n2-c2ccc(CNC(=O)C3(NC(=O)c4cccnc4Cl)CC3)cc2)no1 [Example 85, 2-Chloro-N-(1-{4-[3-chloro-5-fluoro-2-(5-methyl-[1,2,4]oxadiazol-3-yl)-indol-1-yl]-benzylcarbamoyl}-cyclopropyl)-nicotinamide]	< 20	< 20
COc1cc(C(=O)NC2(C(=O)NCc3ccc(-n4c(-c5noc(=O)n5C)c(Cl)c5ccccc54)cc3)CC2)on1 [Example 201, 3-Methoxy-isoxazole-5-carboxylic acid (1-{4-[3-chloro-2-(4-methyl-5-oxo-4,5-dihydro-[1,2,4]oxadiazol-3-yl)-indol-1-yl]-benzylcarbamoyl}-cyclopropyl)-amide]	< 20	< 20
Cn1nnc(-c2c(Cl)c3ccccc3n2-c2ccc(CNC(=O)C3(NC(=O)CC(F)(F)F)CC3)cc2)n1 [Example 29, 1-(3,3,3,-Trifluoro-propionylamino)-cyclopropanecarboxylic acid 4-[3-chloro-2-(2-methyl-2H-tetrazol-5-yl)-indol-1-yl]-benzylamide]	< 20	< 20
Cc1nc(-c2c(Cl)c3ccccc3n2-c2ccc(CNC(=O)C3(NC(=O)c4cccnc4C)CC3)cc2)no1 [Example 155, N-(1-{4-[3-Chloro-2-(5-methyl-[1,2,4]oxadiazol-3-yl)-indol-1-yl]-benzylcarbamoyl}-cyclopropyl)-2-methyl-nicotinamide]	20 to 100	20 to 100
